For data set [1], the system named is IL-6 secretion in human PBMC. The data set can be described thus: IRAK IL-6 secretion functional assay in human PBMC. It is filed as cell-based. The settings on record: preincubated 1 h with test article, stimulated with 10 ng/ml IL1, 18-20 h, ELISA. The protocol:
IRAK IL-6 Secretion Functional Assay in Human PBMC
Human PBMCs from healthy volunteers were purified from buffy coats of heparinized whole blood by density centrifugation on Ficoll-Hypaque. Isolated PBMCs were washed twice in PBS, counted, and seeded at a density of 7×10^4 cells/well in 180 µl of complete RPMI 1640 medium containing 10% heat-inactivated FBS. PBMC were preincubated for 1 h with serial dilutions of test article dissolved in DMSO (final DMSO concentration 0.33%) at 37° C. in a 5% CO2 incubator. PBMC were then stimulated with 10 ng/ml of IL1-(final volume […]) and incubation was continued for 18-20 h. The supernatants were collected and IL-6 was quantified using the Duo-set ELISA kit (R&D Systems) following manufacturer's instructions

The test system of data set [2] is IL1β-induced IL8 release in THP1 cells. Briefly: IRAK IL8 secretion functional assay. The data set is classed as cell-based. The settings on record: Homo sapiens; THP-1 cells, IL1β 100 ng/ml overnight, IL8 by HTRF; read-out: IC50, Secretion THP-1/IL-β induced IL8 release. In short, it runs like this: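 THP-1 cells (30,000/well, RPMI 1640) were incubated overnight at 37 °C, 5% CO2 with compound (20 μM to 1 nM) plus IL1β at 100 ng/ml final. IL-8 in the supernatant was measured by HTRF with europium cryptate- and XL665-labelled anti-IL8 antibodies, read after 3 h at 30 °C.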

Data set [3] relates to LPS-induced TNFα release. Briefly: LPS-induced cytokine release in mice (TNFα). It is filed as in vivo. The following applies: female C57B6 mice; for inhibition of LPS-induced TNFα release in mice: 30 min before LPS 1 mg/kg i.p., serum 2 hours after LPS. Here is the method: (§1) LPS-Induced Cytokine Release in Mice
(§2) Female C57B6 mice (8-10 weeks 4-6 mice/group) were dosed p.o. with vehicle (40% Kleptose in water), reference compound dexamethasone (1 mg/kg) or three different doses of compound 1 (10, 30 and 60 mg/kg at 10 mL/kg). 30 minutes after compound administrations mice were injected i.p. with LPS (0111:B4, 1 mg/kg). 2 hours after LPS injection mice were sacrificed. Serum was collected; cytokine levels (TNF-α and IL-6) were detected by ELISA or OBA.

Data set [4] relates to LPS-induced IL-6 release. The data set can be described thus: LPS-induced cytokine release in mice (IL-6). The following applies: female C57B6 mice; for inhibition of LPS-induced IL-6 release in mice: 30 min before LPS 1 mg/kg i.p., serum 2 hours after LPS. It is filed as in vivo. Here is the method: as §1, §2
For data set [5], the system named is T1, IRAK1/4 human.
T1 construct: fused on or other part: His tag and TEV cleavage site at the N-terminus
The data set can be described thus: IRAK1/4 phosphorylation IC50 (enzymatic assay, table 2). The data set is classed as biochemical. The following applies: human IRAK1/4 phosphorylation. An outline of the steps:
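In 384-well plates, reactions in 50 mM Hepes pH7.0 buffer with MgCl2, DTT, EGTA and BSA combined ATP, compounds in DMSO at 20 µM to 1 nM, and either His-TEV-tagged human IRAK-1 or His-TEV-tagged human IRAK-4 plus STK1-biotin peptide. They ran for 2 or 3 hours alongside 2% DMSO controls. Each value is an IC50 for inhibition.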

Consider 24 compounds from patent US9073892B2, “Indazolyl triazol derivatives” (Merck Serono S.A., priority 2010, dated 2015).

Structures can show the parent of a compound that is named as a salt.

In the case of `Cc1ccc2c(-c3cn(-c4ccc(C5CCNCC5)cc4)nn3)n[nH]c2c1` (as salt: HCl) [Example 265], the melting point is 303 °C.

As to `O=C(c1ccc(-n2cc(-c3n[nH]c4ccccc34)nn2)cc1)N1CCOCC1` [Example 1, 3-{1-[4-(morpholin-4-ylcarbonyl)phenyl]-1H-1,2,3-triazol-4-yl}-1H-indazole], the IC50 lay within 0.2 to 2 µM in data set [1], 0.1 to 1 µM in data set [2] and 0.1 to 1 µM in data set [5]. For the same compound, in data set [3] (10, 30 and 60 mg/kg p.o.), the “LPS-induced TNFα release in mice (result in words)” value was “inhibits dose dependently”. Besides, the “inhibition of LPS-induced TNFα release in mice” value in data set [3] (10 mpk po) was determined as 36% INH; in data set [3] (30 mpk po) it was 43% INH; in data set [3] (60 mpk po), 61% INH. Moreover, in data set [4] (10, 30 and 60 mg/kg p.o.), the “LPS-induced IL-6 release in mice (result in words)” value is listed as “inhibits dose dependently”. Also, the “inhibition of LPS-induced IL-6 release in mice” value in data set [4] (10 mpk po) was 9% INH; in data set [4] (30 mpk po) it was 25% INH; in data set [4] (60 mpk po), 66% INH.

As to `O=C(c1ccc(-n2cc(-c3n[nH]c4ccccc34)nn2)cc1)N1CCCC(CN2CCCC2)C1` (stereo not shown) [Example 2, 3-[1-(4-{[3-(pyrrolidin-1-ylmethyl)piperidin-1-yl]carbonyl}phenyl)-1H-1,2,3-triazol-4-yl]-1H-indazole], the results for the IC50 in data set [1], in data set [2] and in data set [5] were 0.2 to 2 µM, less than 0.1 µM and less than 0.1 µM, respectively.

As for `Cc1ccc2[nH]nc(-c3cn(-c4ccc(CN5CCOCC5)cc4)nn3)c2c1` [Example 7, 5-methyl-3-{1-[4-(morpholin-4-ylmethyl)phenyl]-1H-1,2,3-triazol-4-yl}-1H-indazole], the IC50 is 0.2 to 2 µM in data set [1], 0.1 to 1 µM in data set [2] and 0.1 to 1 µM in data set [5].

As to `O=C(c1ccc(-n2cc(-c3n[nH]c4ccccc34)nn2)cc1)N1CCCC(O)C1` (stereo not shown) [Example 30], the IC50 is 0.2 to 2 µM in data set [1], 0.1 to 1 µM in data set [2] and 0.1 to 1 µM in data set [5].

As for `O=C(c1ccc(-n2cc(-c3n[nH]c4ccccc34)nn2)cc1)N1CCCC(CO)C1` (stereo not shown) [Example 33], the IC50 in data set [1] is less than 0.2 µM; in data set [2] it was 0.1 to 1 µM; in data set [5] it was less than 0.1 µM.

With `CN1CCC(c2ccc3[nH]nc(-c4cn(-c5ccc(C(=O)N6CCOCC6)cc5)nn4)c3c2)CC1` [Example 124, 5-(1-methylpiperidin-4-yl)-3-{1-[4-(morpholin-4-ylcarbonyl)phenyl]-1H-1,2,3-triazol-4-yl}-1H-indazole], the IC50 in data set [1] was less than 0.2 µM; in data set [2] it was 0.1 to 1 µM; in data set [5], less than 0.1 µM.

With `CN1C2CCC1CC(n1cc(NC(=O)c3ccc(-n4cc(-c5n[nH]c6ccccc56)nn4)cc3)cn1)C2` (stereo not shown) [Example 125, 4-[4-(1H-indazol-3-yl)-1H-1,2,3-triazol-1-yl]-N-[1-(8-methyl-8-azabicyclo[3.2.1]oct-3-yl)-1H-pyrazol-4-yl]benzamide], the IC50 in data set [1] is 0.2 to 2 µM; in data set [2] it was 0.1 to 1 µM; in data set [5], less than 0.1 µM.

In the case of `COC1CCCN(C(=O)c2ccc(-n3cc(-c4n[nH]c5ccccc45)nn3)cc2)C1` (stereo not shown) [Example 127], the IC50 in data set [2] was 0.1 to 1 µM; in data set [5], less than 0.1 µM.

Regarding `O=C(Nc1cnn(C2CCNCC2)c1)c1ccc(-n2cc(-c3n[nH]c4ccccc34)nn2)cc1` [Example 128, 4-[4-(1H-indazol-3-yl)-1H-1,2,3-triazol-1-yl]-N-(1-piperidin-4-yl-1H-pyrazol-4-yl)benzamide hydrochloride], the figures for the IC50 in data set [2] and in data set [5] were 1 to 5 µM and 0.1 to 1 µM, respectively.

Take `O=C(Nc1cnn(C2CCCNCC2)c1)c1ccc(-n2cc(-c3n[nH]c4ccccc34)nn2)cc1` (stereo not shown) [Example 129, N-(1-azepan-4-yl-1H-pyrazol-4-yl)-4-[4-(1H-indazol-3-yl)-1H-1,2,3-triazol-1-yl]benzamide hydrochloride]: the IC50 in data set [2] lay in the range of 1 to 5 µM; in data set [5], 0.1 to 1 µM.

Consider `c1ccc2c(-c3cn(-c4ccc(C5CCNCC5)cc4)nn3)n[nH]c2c1` [Example 132, 3-[1-(4-piperidin-4-ylphenyl)-1H-1,2,3-triazol-4-yl]-1H-indazole hydrochloride], for which the IC50 in data set [1] is 0.2 to 2 µM; in data set [5], 0.1 to 1 µM.

In the case of `Cc1ccc2c(-c3cn(-c4ccc(C5CCN(CC(O)C(F)(F)F)CC5)cc4)nn3)n[nH]c2c1` (stereo not shown) [Example 136, 1,1,1-trifluoro-3-(4-{4-[4-(6-methyl-1H-indazol-3-yl)-1H-1,2,3-triazol-1-yl]phenyl}piperidin-1-yl)propan-2-ol], the figures for the IC50 in data set [1] and in data set [5] were 0.2 to 2 µM and less than 0.1 µM, respectively.

In the case of `c1ccc2c(-c3cn(-c4ccc(CN5C[C@@H]6C[C@H]5CO6)cc4)nn3)n[nH]c2c1` [Example 145, 3-(1-{4[(1S,4S)-2-oxa-5-azabicyclo[2.2.1]hept-5-ylmethyl]phenyl}-1H-1,2,3-triazol-4-yl)-1H-indazole], the values for the IC50 in data set [1] and in data set [5] were 0.2 to 2 µM and 0.1 to 1 µM, respectively.

`CN(C)C1CCN(C(=O)c2ccc(-n3cc(-c4n[nH]c5ccc(F)cc45)nn3)cc2)CC1` [Example 158] displayed an IC50 in data set [1] of less than 0.2 µM.

Turning to `c1ccc2c(-c3cn(-c4ccc(CN5CCOCC5)cc4)nn3)n[nH]c2c1` [Example 188], the IC50 was 0.2 to 2 µM in data set [1] and 0.1 to 1 µM in data set [5].

For `O=c1ccc(-c2cccnc2)nn1Cc1ccc2[nH]nc(-c3cn(-c4ccc(CN5CCOCC5)cc4)nn3)c2c1` [Example 197], the IC50 is less than 0.2 µM in data set [1] and less than 0.1 µM in data set [5].

Consider `O=C(c1ccc(-n2cc(-c3n[nH]c4ccc(C5CCCNC5)cc34)nn2)cc1)N1CCOCC1` (stereo not shown) [Example 204], for which the figures for the IC50 in data set [1] and in data set [5] were 0.2 to 2 µM and less than 0.1 µM, respectively.

On to `O=C(c1ccc(-n2cc(-c3n[nH]c4cc(-c5cccnc5)ccc34)nn2)cc1)N1CCOCC1` [Example 210], for which the IC50 was 0.2 to 2 µM in data set [1] and 0.1 to 1 µM in data set [5].

As for `Cc1ccc2c(-c3cn(-c4cnn(C5CC6CCC(C5)N6C)c4)nn3)n[nH]c2c1` (stereo not shown) [Example 224], the IC50 in data set [1] is 0.2 to 2 µM; in data set [5], less than 0.1 µM.

In the case of `O=C(NC1CCCNC1)c1ccc2[nH]nc(-c3cn(-c4ccc(CN5CCOCC5)cc4)nn3)c2c1` (stereo not shown) [Example 238], the IC50 is less than 0.2 µM in data set [1] and less than 0.1 µM in data set [5].

`CN1[C@@H]2CC[C@H]1C[C@@H](c1ccc(-n3cc(-c4n[nH]c5ccccc45)nn3)cc1)C2` [Example 251]: the figures for the IC50 in data set [1] and in data set [5] were 0.2 to 2 µM and 0.1 to 1 µM, respectively.

`Cc1ccc2c(-c3cn(-c4ccc(C5CCN(C6CCOCC6)CC5)cc4)nn3)n[nH]c2c1` [Example 298]: the IC50 in data set [1] fell in the range of 0.2 to 2 µM; in data set [5], 0.1 to 1 µM.

With `C[C@@H]1C[C@H]2[C@@H]3CCC4=CC(=O)C=C[C@]4(C)[C@@]3(F)[C@@H](O)C[C@]2(C)[C@@]1(O)C(=O)CO` [dexamethasone, reference compound], in data set [3] (1 mpk po), the “inhibition of LPS-induced TNFα release in mice” value turned out to be 97% INH. Besides, in data set [4] (1 mpk po), the “inhibition of LPS-induced IL-6 release in mice” value turned out to be 83% INH.
